Reference: patent US20230277573A1, “OLIGOSACCHARIDE COMPOSITIONS AND METHODS OF USE” (DSM Nutritional Products, LLC, priority 2020, published 2023)

Test system: western diet (WD)-induced obese low density lipoprotein receptor knock-out (ldlr−/−) mouse model
Experiment: Western diet (WD)-induced obese ldlr−/− mouse model: blood, liver, aorta and body weight readouts
Format: in vivo
Conditions: WD-fed ldlr−/− mice, 16 wk, fenofibrate 100 mg/kg/day
Procedure: The therapeutic and microbiome effects of the selected oligosaccharide composition were tested in a validated western diet (WD)-induced obese low density lipoprotein receptor knock-out (ldlr^−/−) mouse model, thought to recapitulate a number of metabolic pathologies found in humans, including obesity, hyperglycemia, glucose intolerance, hyperinsulinemia, insulin resistance, severe hypercholesterolemia, hypertriglyceridemia, atherosclerosis, hepatic steatosis and hepatic inflammation. […]
9-11 weeks old male C57BL/6J ldlr^−/− mice were split into one of four treatment groups (12 animals per group, 4 animals per cage)—(1) no treatment (NT), (2) the selected oligosaccharide (as produced by the process described in Example 2), (3) a glucose/galactose-based oligosaccharide composition and (4) fenofibrate—for 16 weeks. […] The body weight for each animal was measured prior to the treatment period and weekly over the treatment period. 4-day food intake for each cage was measured weekly over the treatment period and averaged as food intake per mouse per day. […] For each animal, separate liver sections (˜100 mg each) were collected and frozen for the quantification of hepatic TG and hepatic TC. […] The aortic arch was surface stained with oil red O for the quantification of atherosclerotic plaque surface area.

## CC(C)OC(=O)C(C)(C)Oc1ccc(C(=O)c2ccc(Cl)cc2)cc1 [fenofibrate, Fenofibrate]
OS 7.5% w/w in diet
  effect on food intake: no effect
  body weight gain lowered by, compared to NT: 44%
